Data: ChEMBL document CHEMBL1126548, “Methoxylation of cocaine reduces binding affinity and produces compounds of differential binding and dopamine uptake inhibitory activity: discovery of a weak cocaine "antagonist"” (J Med Chem, 1993)
pIC50, pKi: −log10 of the molar value.

Key:
Rattus norvegicus [1] = species on record: Rattus norvegicus; assay: Binding affinity against [3H]mazindol
Rattus norvegicus [2] = species on record: Rattus norvegicus; assay: Compound tested for inhibitory activity against [3H]dopamine uptake in synaptosomes from rat caudate nucleus; parameters: species or system Brain
Rattus norvegicus [3] = species on record: Rattus norvegicus; assay: Effect on cocaine inhibition of [3H]dopamine uptake at 50 uM
Rattus norvegicus [4] = species on record: Rattus norvegicus; assay: Effect on cocaine inhibition of [3H]dopamine uptake at 200 uM
Rattus norvegicus [5] = species on record: Rattus norvegicus; assay: Effect on cocaine inhibition of [3H]-dopamine uptake at 500 uM
Rattus norvegicus [6] = species on record: Rattus norvegicus; assay: Effect on cocaine inhibition of [3H]dopamine uptake

**Q.** Which results are given for `COC(=O)[C@@H]1C2C[C@H](OC)[C@H](C[C@@H]1OC(=O)c1ccccc1)N2C` (mixture of isomers)?
**A.** pKi (Rattus norvegicus [1]): 4.01; pKi (Rattus norvegicus [2]): 4.17

**Q.** How did the pKi (Rattus norvegicus [1]) turn out when `COC(=O)[C@@H]1C2[C@H](OC)C[C@H](C[C@@H]1OC(=O)c1ccccc1)N2C` (mixture of isomers) was run?
**A.** The pKi was 5.38.

**Q.** And the pKi (Rattus norvegicus [2])?
**A.** Its pKi is 5.21.

**Q.** `COC(=O)[C@H]1C2[C@@H](OC)C[C@H](C[C@@H]1OC(=O)c1ccccc1)N2C` (mixture of isomers) was tested. Which pIC50 (Rattus norvegicus [3]) did it give?
**A.** The pIC50 was 6.30.

**Q.** What about the pKi (Rattus norvegicus [1]) of the same molecule?
**A.** Its pKi is 4.27.

**Q.** And the pKi (Rattus norvegicus [2])?
**A.** The pKi was 3.70.

**Q.** What about the pIC50 (Rattus norvegicus [4]) of the same molecule?
**A.** Its pIC50 is 6.03.

**Q.** `COC(=O)[C@H]1C2[C@H](OC)C[C@H](C[C@@H]1OC(=O)c1ccccc1)N2C` (mixture of isomers) was tested. Which pKi (Rattus norvegicus [1]) did it give?
**A.** The pKi was 4.35.

**Q.** What about the pKi (Rattus norvegicus [2]) of the same molecule?
**A.** Its pKi is 3.96.

**Q.** What does the source list for `COC(=O)[C@H]1C2C[C@H](OC)[C@H](C[C@@H]1OC(=O)c1ccccc1)N2C` (mixture of isomers)?
**A.** pKi (Rattus norvegicus [1]): 3.72; pKi (Rattus norvegicus [2]): 3.29; pIC50 (Rattus norvegicus [5]): 5.99

**Q.** `COC(=O)[C@H]1[C@@H](OC(=O)c2ccccc2)C[C@@H]2CC[C@H]1N2C` [COCAINE] was tested. Which pIC50 (Rattus norvegicus [6]) did it give?
**A.** Its pIC50 is 6.47.

**Q.** What about the pKi (Rattus norvegicus [1]) of the same molecule?
**A.** The pKi was 6.55.

**Q.** What about the pKi (Rattus norvegicus [2]) of the same molecule?
**A.** The pKi was 6.49.

**Q.** `COC(=O)[C@H]1C2CCC(C[C@@H]1OC(=O)c1ccccc1)N2` (stereo partly drawn) [PSEUDOCOCAINE] was tested. Which pKi (Rattus norvegicus [1]) did it give?
**A.** The pKi was 4.98.

**Q.** What about the pKi (Rattus norvegicus [2]) of the same molecule?
**A.** The pKi was 4.86.
